Legend:
[1] = xn = mol fraction of the nth substance listed; conditions: 100 kPa, Liquid, Frequency=0.01 MHz, Alternating current cell with electrodes
[2] = 100 kPa, Liquid, Frequency=0.01 MHz, Alternating current cell with electrodes

O=C1CCCO1 [γ-butyrolactone] + CCCCn1cc[n+](C)c1.N#CN=C=[N-]
electrical conductivity [S/m], [1]
Conditions | x2 = 0.0504 | x2 = 0.1002 | x2 = 0.2002 | x2 = 0.2984 | x2 = 0.4005 | x2 = 0.4954 | x2 = 0.6957 | x2 = 0.8871
273.15 K | 1.05 | 1.4 | 1.518 | 1.35 | 1.13 | 0.924 | 0.639 | 0.454
283.15 K | 1.27 | 1.71 | 1.918 | 1.77 | 1.54 | 1.32 | 0.968 | 0.736
293.15 K | 1.5 | 2.03 | 2.35 | 2.24 | 2.012 | 1.78 | 1.37 | 1.09
298.15 K | 1.62 | 2.2 | 2.58 | 2.49 | 2.27 | 2.03 | 1.606 | 1.3
303.15 K | 1.74 | 2.38 | 2.814 | 2.75 | 2.53 | 2.29 | 1.85 | 1.53
313.15 K | 1.98 | 2.73 | 3.301 | 3.29 | 3.101 | 2.87 | 2.401 | 2.04
323.15 K | 2.23 | 3.09 | 3.81 | 3.87 | 3.707 | 3.48 | 3.009 | 2.625

CCCCn1cc[n+](C)c1.N#CN=C=[N-] [1-butyl-3-methylimidazolium dicyanamide] + O=C1CCCO1
[1], x1 = 1
Conditions | electrical conductivity [S/m]
273.15 K | 0.383
283.15 K | 0.636
293.15 K | 0.972
298.15 K | 1.17
303.15 K | 1.39
313.15 K | 1.89
323.15 K | 2.46

CCCCn1cc[n+](C)c1.N#CN=C=[N-] [1-butyl-3-methylimidazolium dicyanamide]
[2]
Conditions | electrical conductivity [S/m]
273.15 K | 0.383
283.15 K | 0.636
293.15 K | 0.972
298.15 K | 1.17
303.15 K | 1.39
313.15 K | 1.89
323.15 K | 2.46
